Assay results reported in patent US11179663B1, “Polyurethane-based materials” (Aviro LLC, priority 2021, dated 2021).

Legend:
COVID-19 [1] = assay: coronavirus capture (attachment) test on coated surfaces, crystal violet stain read by spectrophotometer; conditions: FIG. 1; virus capture by coated surfaces
COVID-19 [2] = assay: coronavirus deactivation test after attachment to the surfaces, qPCR for genes indicative of COVID-19 activity; conditions: FIG. 2; compared among the antiviral coatings

Compound | SARS-Cov2 capture (COVID-19 [1]) | potential to deactivate captured virus (COVID-19 [2])
CCCCCCCCCCCCCCCC[n+]1ccccc1 [CPC, Cetyl pyridinium chloride] | roughly 95% | –
CCCCCCCCCCCCCCCCCC[N+](C)(C)CCC[Si](OC)(OC)OC.[Cl-] [DMS, Dimethyloctadecyl[3-(trimethoxysilyl)propyl]ammonium chloride] | – | highest potential to deactivate
